Measured values taken from ChEMBL document CHEMBL1201862, “PubChem BioAssay data set” (2004).
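Five concentrations, 48 hours, 96-well plates. GI50 is the concentration that inhibits growth by half.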 Active and inactive are the calls of the source. Rule as the data show it: active = GI50 up to about 1.1 µM and inactive = higher.

How the values were obtained:
Assay in all cases: growth of human tumour cells (NCI), 48 h
786-0 = test system: 786-0
A498 = test system: A498
A549 = test system: A549
ACHN = test system: ACHN
BT-549 = test system: BT-549
CAKI-1 = test system: CAKI-1
CCRF-CEM = test system: CCRF-CEM
COLO 205 = test system: COLO 205
DU-145 = test system: DU-145
EKVX = test system: EKVX
HCC 2998 = test system: HCC 2998
HCT-116 = test system: HCT-116
HCT-15 = test system: HCT-15
HL-60 = test system: HL-60
HOP-62 = test system: HOP-62
HOP-92 = test system: HOP-92
HT-29 = test system: HT-29
Hs-578T = test system: Hs-578T
IGROV-1 = test system: IGROV-1
K562 = test system: K562
KM12 = test system: KM12
LOX IMVI = test system: LOX IMVI
M14 = test system: M14
MCF7 = test system: MCF7
MDA-MB-231 = test system: MDA-MB-231
MDA-MB-435 = test system: MDA-MB-435
MDA-N = test system: MDA-N
MOLT-4 = test system: MOLT-4
Malme-3M = test system: Malme-3M
NCI-H226 = test system: NCI-H226
NCI-H23 = test system: NCI-H23
NCI-H460 = test system: NCI-H460
NCI-H522 = test system: NCI-H522
NCI/ADR-RES = test system: NCI/ADR-RES
OVCAR-4 = test system: OVCAR-4
OVCAR-5 = test system: OVCAR-5
OVCAR-8 = test system: OVCAR-8
RPMI-8226 = test system: RPMI-8226
RXF 393 = test system: RXF 393
SF-268 = test system: SF-268
SF-295 = test system: SF-295
SF-539 = test system: SF-539
SK-MEL-28 = test system: SK-MEL-28
SK-MEL-2 = test system: SK-MEL-2
SK-MEL-5 = test system: SK-MEL-5
SK-OV-3 = test system: SK-OV-3
SN12C = test system: SN12C
SNB-19 = test system: SNB-19
SNB-75 = test system: SNB-75
SR = test system: SR
SW-620 = test system: SW-620
T47D = test system: T47D
TK-10 = test system: TK-10
U-251 = test system: U-251
UACC-257 = test system: UACC-257
UACC-62 = test system: UACC-62
UO-31 = test system: UO-31
OVCAR-3 = test system: OVCAR-3
PC-3 = test system: PC-3

Measured: GI50

CC(C)Oc1c(-c2c(OC(C)C)c(=O)c2=O)c(=O)c1=O
active: Malme-3M 0.344 µM
> 60.5 µM: HCT-15
inactive: 786-0 > 52.5 µM | A498 > 100 µM | A549 > 100 µM | ACHN > 70.6 µM | BT-549 > 48 µM | CAKI-1 > 100 µM | CCRF-CEM > 52 µM | COLO 205 > 29.7 µM | DU-145 > 100 µM | EKVX > 48.5 µM | HCC 2998 > 55.3 µM | HCT-116 > 32.4 µM | HL-60 24.7 µM | HOP-62 > 36.1 µM | HOP-92 > 100 µM | HT-29 > 23.1 µM | Hs-578T > 41.9 µM | IGROV-1 > 31.7 µM | K562 > 31.8 µM | KM12 > 36.5 µM | LOX IMVI > 32.4 µM | M14 > 100 µM | MCF7 > 20.2 µM | MDA-MB-231 > 36.7 µM | MDA-MB-435 > 30.2 µM | MDA-N > 29 µM | MOLT-4 > 36.6 µM | NCI-H226 > 78.3 µM | NCI-H23 > 52.8 µM | NCI-H460 > 60.7 µM | NCI-H522 > 20.1 µM | NCI/ADR-RES 4.81 µM | OVCAR-4 > 49.7 µM | OVCAR-5 > 100 µM | OVCAR-8 > 34.7 µM | RPMI-8226 29.9 µM | RXF 393 > 56.6 µM | SF-268 > 47.3 µM | SF-295 > 65 µM | SF-539 > 65.8 µM | SK-MEL-28 > 68.2 µM | SK-MEL-2 > 56.9 µM | SK-MEL-5 > 41.6 µM | SK-OV-3 > 100 µM | SN12C > 49.2 µM | SNB-19 > 69 µM | SNB-75 48 µM | SR > 100 µM | SW-620 > 34.9 µM | T47D > 100 µM | TK-10 > 70.1 µM | U-251 > 36.5 µM | UACC-257 > 56.4 µM | UACC-62 > 40 µM | UO-31 > 58.5 µM

O=C1NN=C(O)C2C3c4ccccc4C(c4ccccc43)C12 (centres undefined)
> 100 µM: HCT-15
inactive: 786-0 > 100 µM | A498 > 100 µM | A549 > 100 µM | ACHN > 100 µM | BT-549 > 100 µM | CAKI-1 > 100 µM | CCRF-CEM > 100 µM | COLO 205 > 100 µM | DU-145 > 100 µM | EKVX > 100 µM | HCC 2998 > 100 µM | HCT-116 > 100 µM | HL-60 > 100 µM | HOP-62 > 100 µM | HT-29 > 100 µM | Hs-578T > 100 µM | IGROV-1 > 100 µM | K562 > 100 µM | KM12 > 100 µM | LOX IMVI > 100 µM | M14 > 100 µM | MCF7 > 100 µM | MDA-MB-231 > 100 µM | MDA-N > 100 µM | MOLT-4 > 100 µM | Malme-3M > 100 µM | NCI-H226 > 100 µM | NCI-H23 > 100 µM | NCI-H460 > 100 µM | NCI/ADR-RES > 100 µM | OVCAR-3 > 100 µM | OVCAR-4 > 100 µM | OVCAR-5 > 100 µM | OVCAR-8 > 100 µM | PC-3 > 100 µM | RPMI-8226 > 100 µM | RXF 393 > 100 µM | SF-268 > 100 µM | SF-295 > 100 µM | SF-539 > 100 µM | SK-MEL-28 > 100 µM | SK-MEL-5 > 100 µM | SK-OV-3 > 100 µM | SN12C > 100 µM | SNB-19 > 100 µM | SNB-75 > 100 µM | SR > 100 µM | SW-620 > 100 µM | T47D > 100 µM | TK-10 > 100 µM | U-251 > 100 µM | UACC-257 > 100 µM | UACC-62 > 100 µM | UO-31 > 100 µM

C[n+]1cn(-c2nc3ccccc3nc2[N-]S(=O)(=O)c2ccccc2)c2ccccc21
inactive: 786-0 > 100 µM | A549 > 100 µM | ACHN > 100 µM | BT-549 > 100 µM | CAKI-1 > 100 µM | CCRF-CEM > 100 µM | COLO 205 > 100 µM | EKVX > 100 µM | HCC 2998 > 100 µM | HCT-116 > 100 µM | HL-60 > 100 µM | HOP-62 > 100 µM | HOP-92 > 100 µM | HT-29 > 100 µM | Hs-578T > 100 µM | IGROV-1 > 100 µM | K562 > 100 µM | KM12 > 100 µM | LOX IMVI > 100 µM | M14 > 100 µM | MCF7 > 100 µM | MDA-MB-231 > 100 µM | MDA-MB-435 > 100 µM | MDA-N > 100 µM | MOLT-4 > 100 µM | Malme-3M > 100 µM | NCI-H226 > 100 µM | NCI-H23 > 100 µM | NCI-H460 > 100 µM | NCI/ADR-RES > 100 µM | OVCAR-3 > 100 µM | OVCAR-4 > 100 µM | OVCAR-5 > 100 µM | OVCAR-8 > 100 µM | PC-3 > 100 µM | RPMI-8226 > 100 µM | RXF 393 62.2 µM | SF-268 > 100 µM | SF-295 > 100 µM | SF-539 > 100 µM | SK-MEL-28 > 100 µM | SK-MEL-2 > 100 µM | SK-MEL-5 > 100 µM | SK-OV-3 > 100 µM | SN12C > 100 µM | SNB-19 > 100 µM | SNB-75 > 100 µM | SR > 100 µM | SW-620 > 100 µM | T47D > 100 µM | TK-10 > 100 µM | U-251 > 100 µM | UACC-257 > 100 µM | UACC-62 > 100 µM | UO-31 80.7 µM
active: NCI-H522 0.222 µM
> 100 µM: HCT-15
